Experimental data: patent publication US20050009797A1, “Androstane derivative having substituent in 7- abd 17--positions” (priority 2001, published 2005)
Read-outs that look alike come from different tables or passages of the source.

Assays:
[1] = Metabolic stability in rat liver microsome with β-NAD+ (Example 27); type: in vitro ADME; settings: 37° C.
Procedure: A test tube containing 0.1 mol/L potassium phosphate buffer (345 μL, pH 7.4) was cooled on ice, followed by addition of 5 mg/mL rat liver microsome (50 μL), 0.1 mol/L magnesium chloride (50 μL) and a test compound dissolved in ethanol (adjusted to 1 mg/mL, 5 μL). After pre-incubation at 37° C. for 5 minutes, 10 mM β-Nicotinamide-adenine dinucleotide, oxidized form (β-NAD^+) was added to initiate the reaction. The reaction was continued at 37° C. for 0, 5 and 15 minutes, followed by addition of 0.1 mol/L hydrochloric acid (100 μL) and diethyl ether (5 mL) to stop the reaction. The reaction mixture was stirred for 10 minutes and then centrifuged at 3000 rpm for 10 minutes. The upper organic layer (4.5 mL) was transferred to another test tube, evaporated to dryness under a nitrogen stream, dissolved in 40% acetonitrile (200 μL) and then measured for the peak area of the test compound by high performance liquid chromatography. The residual percentage of the test compound at a given point in time was calculated using the following equation: Residual (%)=[(peak area of the test compound at a given time point)/(peak area of the test compound at 0 minutes)]×100

[2] = test system: castrated rats; settings: castrated rats continuously administered for two weeks; cited from earlier work
[3] = molecular target: T1, human androgen receptor (Homo sapiens, UniProt P10275); experiment: Androgen receptor reporter gene assay, agonistic effects (Example 25); type: cell-based; settings: HeLa cells transfected with MMTV-Luc and pSG5-hAR; 1-10000 nmol/L; 48 h; no DHT
T1 construct: expressed in transfected cells; host or cells: HeLa cells
T1 sequence (P10275 1-920): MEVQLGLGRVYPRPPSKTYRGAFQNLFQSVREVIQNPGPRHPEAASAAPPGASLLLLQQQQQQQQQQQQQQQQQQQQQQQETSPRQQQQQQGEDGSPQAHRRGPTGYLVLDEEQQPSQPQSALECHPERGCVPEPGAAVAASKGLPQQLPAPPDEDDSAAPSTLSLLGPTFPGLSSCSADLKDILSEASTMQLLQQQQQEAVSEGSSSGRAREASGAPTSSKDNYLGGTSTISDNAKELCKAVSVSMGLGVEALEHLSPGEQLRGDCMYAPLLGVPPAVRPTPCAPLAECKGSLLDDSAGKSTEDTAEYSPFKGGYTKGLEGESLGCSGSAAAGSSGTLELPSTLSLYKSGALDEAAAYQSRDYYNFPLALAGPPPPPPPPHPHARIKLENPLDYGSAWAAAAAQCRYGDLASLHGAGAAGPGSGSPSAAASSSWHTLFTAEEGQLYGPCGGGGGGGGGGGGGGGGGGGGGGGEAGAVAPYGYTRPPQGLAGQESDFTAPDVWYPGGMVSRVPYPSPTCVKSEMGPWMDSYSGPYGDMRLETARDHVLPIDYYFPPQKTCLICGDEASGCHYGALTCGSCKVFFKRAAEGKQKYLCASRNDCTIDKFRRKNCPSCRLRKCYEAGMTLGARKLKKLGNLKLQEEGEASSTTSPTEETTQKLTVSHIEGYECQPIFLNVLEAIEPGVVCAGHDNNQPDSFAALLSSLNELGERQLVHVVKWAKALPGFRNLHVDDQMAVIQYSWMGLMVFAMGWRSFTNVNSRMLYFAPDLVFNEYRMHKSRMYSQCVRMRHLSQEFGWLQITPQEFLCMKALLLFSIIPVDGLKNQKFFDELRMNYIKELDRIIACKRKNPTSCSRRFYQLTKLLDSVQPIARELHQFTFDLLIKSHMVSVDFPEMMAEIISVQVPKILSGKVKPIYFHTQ
Procedure: Twenty-four hours before transfection, 1.0×10^5 HeLa cells (purchased from Dainippon Pharmaceutical Co., Ltd.) are cultured in a 12-well microplate containing phenol red-free Dulbecco's Modified Eagle Medium (phenol red-free DMEM) supplemented with charcoal-treated FBS (DCC-FBS; 5%). […] Transfection is carried out in phenol red-free DMEM medium using 3 μL/well lipofectamine (Gibco BRL). Nine hours after transfection, the medium is replaced by phenol red-free DMEM/3% DCC-FBS supplemented with 10 μmol/L of the compound of Formula (I) or a salt or ester thereof according to the present invention. Forty-eight hours after replacement of the medium, the transcriptional activity is determined by a Dual-Luciferase Reporter Assay System (promega) according to the following equation: (transcriptional activity)=(firefly luciferase activity)/(Renilla luciferase activity). To effect this assay, reference may be made to J. Biol. Chem., vol. 270, p.
(§1) Twenty-four hours before transfection, 1.0×10^5 HeLa cells were cultured in a 12-well microplate containing phenol red-free DMEM/5% DCC-FBS. The HeLa cells were then transfected with 500 ng/well MMTV-Luc vector, 100 ng/well pSG5-hAR and 5 ng/well Renilla Luc vector. Transfection was carried out in phenol red-free DMEM medium using […] lipofectamine. […] Forty-eight hours after replacement of the medium, the transcriptional activity was determined by a Dual-Luciferase Reporter Assay System according to the following equation: (transcriptional activity)=(firefly luciferase activity)/(Renilla luciferase activity).
The transcriptional activity thus determined was used to calculate agonist activity according to the following equation, which in turn was used to calculate a FI5 value (i.e., a concentration at which the compound provides a 5-fold increase in transcriptional activity as compared to the value obtained in the absence of the compound). Agonist activity=(transcriptional activity in the presence of the compound)/(transcriptional activity in the absence of the compound)

[4] = molecular target: T1, human androgen receptor; experiment: Androgen receptor reporter gene assay, antagonistic effects (Example 26); type: cell-based
Procedure: Twenty-four hours before transfection, 1.0×10^5 HeLa cells are cultured in a 12-well microplate containing phenol red-free DMEM/5% DCC-FBS. The HeLa cells are then transfected with 500 ng/well MMTV-Luc vector, 100 ng/well pSG5-hAR and 5 ng/well Renilla Luc vector. Transfection is carried out in phenol red-free DMEM medium using 3 μL/well lipofectamine. Nine hours after transfection, the medium is replaced by phenol red-free DMEM/3% DCC-FBS supplemented with 0.1 nmol/L DHT and 1.0 μmol/L of the compound of Formula (I) or a salt or ester thereof according to the present invention. Forty-eight hours after replacement of the medium, the transcriptional activity is determined by a Dual-Luciferase Reporter Assay System according to the following equation: (transcriptional activity)=(firefly luciferase activity)/(Renilla luciferase activity). To effect this assay, reference may be made to J. Biol. Chem., vol. 270, p.
as §1

[5] = molecular target: androgen receptor (Homo sapiens, UniProt P10275); settings: concentration of 10 μM; cited from earlier work
[6] = prostate cancer patients undergoing treatment with flutamide; cited from earlier work
[7] = 50% inhibition of transcriptional activity induced by DHT (0.1 nmol/L), HeLa cells transfected with MMTV-Luc and pSG5-hAR, 48 h, read-out: IC50 value

CN(C)C(=O)CCCCCCC[C@@H]1C[C@H]2CC(=O)CC[C@]2(C)[C@H]2CC[C@]3(C)[C@@H](O)CC[C@H]3[C@H]12 [Comparative Example, 17β-hydroxy-7α-{7-(N,N-dimethylaminocarbonyl)heptyl}-5α-androstan-3-one, reference compound]
Residual (%) 5 minutes [1]: 59.4% | Residual (%) 15 minutes [1]: 15.1%

CC(=O)O[C@]1(C(C)=O)CC[C@H]2[C@@H]3C=C(Cl)C4=CC(=O)CC[C@]4(C)[C@H]3CC[C@@]21C [chlormadinone acetate]
prostate weight [2]: increase in their prostate weight

CC12CCC(=O)C=C1CC(CCCc1cccc(CCCCC(=O)O)c1)C1C2CCC2(C)C1CCC2(C)O (stereo not shown) [Example 24]
FI5 value (concentration giving 5-fold increase in transcriptional activity) [3]: ND (a FI5 value cannot be calculated because the compound provides less than a 5-fold increase in transcriptional activity even at a concentration of 10000 nM) | IC50 [4, 7]: 4040 nM

CC(=O)O[C@]1(C(C)=O)CC[C@H]2[C@@H]3C=C(Cl)C4=CC(=O)[C@@H]5C[C@@H]5[C@]4(C)[C@H]3CC[C@@]21C [cyproterone acetate]
prostate weight [2]: increase in their prostate weight

CC12CCC(=O)C=C1CC(CCCc1cccc(OCCCC(=O)O)c1)C1C2CCC2(C)C1CCC2(C)O (stereo not shown) [Example 20]
FI5 value (concentration giving 5-fold increase in transcriptional activity) [3]: ND (a FI5 value cannot be calculated because the compound provides less than a 5-fold increase in transcriptional activity even at a concentration of 10000 nM) | IC50 [4, 7]: 815 nM

CC12CCC(=O)C=C1CC(CCCCCc1ccc(OCC(=O)O)cc1)C1C2CCC2(C)C1CCC2(C)O (stereo not shown) [Example 7]
FI5 value (concentration giving 5-fold increase in transcriptional activity) [3]: ND (a FI5 value cannot be calculated because the compound provides less than a 5-fold increase in transcriptional activity even at a concentration of 10000 nM) | IC50 [4, 7]: 5140 nM

CC(C)(O)C(=O)Nc1ccc([N+](=O)[O-])c(C(F)(F)F)c1 [Hydroxyflutamide]
effect on transcriptional activity of androgen receptor [5]: enhance the transcriptional activity of androgen receptor | blood hydroxyflutamide levels [6]: several

CC12CCC(=O)C=C1CC(CCCc1ccc(CCCCC(=O)O)cc1)C1C2CCC2(C)C1CCC2(C)O (stereo not shown) [Example 22]
FI5 value (concentration giving 5-fold increase in transcriptional activity) [3]: ND (a FI5 value cannot be calculated because the compound provides less than a 5-fold increase in transcriptional activity even at a concentration of 10000 nM) | IC50 [4]: 717 nM

CC12CCC(=O)C=C1CC(CCCCc1cccc(OCCCCCC(=O)O)c1)C1C2CCC2(C)C1CCC2(C)O (stereo not shown) [Example 13]
FI5 value (concentration giving 5-fold increase in transcriptional activity) [3]: ND (a FI5 value cannot be calculated because the compound provides less than a 5-fold increase in transcriptional activity even at a concentration of 10000 nM) | IC50 [4, 7]: 529 nM

C[C@]12CCC(=O)C=C1C[C@@H](CCCc1ccc(OCCCC(=O)O)cc1)[C@@H]1[C@@H]2CC[C@@]2(C)[C@H]1CC[C@]2(C)O [Example 18, 17β-hydroxy-17α-methyl-7α-(3-(4-(3-carboxy-propoxy)phenyl)propyl)-4-androsten-3-one]
FI5 value (concentration giving 5-fold increase in transcriptional activity) [3]: ND (a FI5 value cannot be calculated because the compound provides less than a 5-fold increase in transcriptional activity even at a concentration of 10000 nM) | Residual (%) 5 minutes [1]: 113.7% | Residual (%) 15 minutes [1]: 110.8% | IC50 [4]: 664 nM

C[C@]12CCC(=O)C=C1C[C@@H](CCCCc1cccc(OCCCCC(=O)O)c1)[C@@H]1[C@@H]2CC[C@@]2(C)[C@H]1CC[C@]2(C)O [Example 1, 17β-hydroxy-17α-methyl-7α-(4-(3-(4-carboxy-butoxy)phenyl)butyl)-4-androsten-3-one]
FI5 value (concentration giving 5-fold increase in transcriptional activity) [3]: ND* (a FI5 value cannot be calculated because the compound provides less than a 5-fold increase in transcriptional activity even at a concentration of 10000 nM) | IC50 [4, 7]: 333 nM
